# From PubChem BioAssay (NCI)
#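 GI50 marks 50% less growth. TGI denotes the concentration required for complete inhibition of growth.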
# Tests used:
# Test in all cases: DTP human tumour cell line panel, 384-well format
# MCF7 breast = test system: MCF7 breast
# HOP-62 NSCLC = test system: HOP-62 NSCLC
# UACC-257 melanoma = test system: UACC-257 melanoma
# SF-539 CNS = test system: SF-539 CNS
# SK-MEL-2 melanoma = test system: SK-MEL-2 melanoma
# DU-145 prostate = test system: DU-145 prostate
# MALME-3M melanoma = test system: MALME-3M melanoma
# SN12C renal = test system: SN12C renal
# OVCAR-3 ovarian = test system: OVCAR-3 ovarian
# OVCAR-8 ovarian = test system: OVCAR-8 ovarian
# IGROV1 ovarian = test system: IGROV1 ovarian
# A498 renal = test system: A498 renal
# NCI-H522 lung = test system: NCI-H522 lung
# RXF 393 renal = test system: RXF 393 renal
# SNB-75 CNS = test system: SNB-75 CNS
# OVCAR-4 ovarian = test system: OVCAR-4 ovarian
# BT-549 breast = test system: BT-549 breast
# MDA-MB-468 breast = test system: MDA-MB-468 breast
# NCI-H226 lung = test system: NCI-H226 lung
# KM12 colon = test system: KM12 colon
# A549 NSCLC = test system: A549 NSCLC
# MDA-MB-231 breast = test system: MDA-MB-231 breast
# EKVX NSCLC = test system: EKVX NSCLC
# HOP-92 NSCLC = test system: HOP-92 NSCLC
# 786-0 renal = test system: 786-0 renal
# U251 glioblastoma = test system: U251 glioblastoma
# NCI-H322M lung = test system: NCI-H322M lung
# HCC-2998 colon = test system: HCC-2998 colon
# OVCAR-5 ovarian = test system: OVCAR-5 ovarian
# NCI/ADR-RES ovarian = test system: NCI/ADR-RES ovarian
# HL-60(TB) leukemia = test system: HL-60(TB) leukemia
# SF-295 CNS = test system: SF-295 CNS
# SF-268 CNS = test system: SF-268 CNS
# ACHN renal = test system: ACHN renal
# TK-10 renal = test system: TK-10 renal
# NCI-H460 NSCLC = test system: NCI-H460 NSCLC
# HT29 colon = test system: HT29 colon
# T-47D breast = test system: T-47D breast
# COLO 205 colon = test system: COLO 205 colon
# CCRF-CEM leukemia = test system: CCRF-CEM leukemia
# SR leukemia = test system: SR leukemia
# SK-OV-3 ovarian = test system: SK-OV-3 ovarian
# HCT-15 colon = test system: HCT-15 colon
# CAKI-1 renal = test system: CAKI-1 renal
# UACC-62 melanoma = test system: UACC-62 melanoma
# M14 melanoma = test system: M14 melanoma
# SK-MEL-28 melanoma = test system: SK-MEL-28 melanoma
# SNB-19 CNS = test system: SNB-19 CNS
# SK-MEL-5 melanoma = test system: SK-MEL-5 melanoma
# MOLT-4 leukemia = test system: MOLT-4 leukemia
# HS 578T breast = test system: HS 578T breast
# MDA-MB-435 melanoma = test system: MDA-MB-435 melanoma
# NCI-H23 lung = test system: NCI-H23 lung
# RPMI-8226 leukemia = test system: RPMI-8226 leukemia
# PC-3 prostate = test system: PC-3 prostate
# SW-620 colon = test system: SW-620 colon
smiles,measurement,setting,value
Nc1nc(F)nc2c1ncn2C1OC(CO)C(O)C1O (configuration not stated),GI50,MCF7 breast,26.6 µM
same,TGI,MCF7 breast,> 100 µM
same,GI50,HOP-62 NSCLC,5.5 µM
same,TGI,HOP-62 NSCLC,21 µM
same,GI50,UACC-257 melanoma,50.8 µM
same,TGI,UACC-257 melanoma,> 100 µM
same,GI50,SF-539 CNS,59 µM
same,TGI,SF-539 CNS,> 100 µM
same,GI50,SK-MEL-2 melanoma,4.7 µM
same,TGI,SK-MEL-2 melanoma,16.6 µM
same,GI50,DU-145 prostate,15.5 µM
same,TGI,DU-145 prostate,57.5 µM
same,GI50,MALME-3M melanoma,1.81 µM
same,TGI,MALME-3M melanoma,8.06 µM
same,GI50,SN12C renal,6.16 µM
same,TGI,SN12C renal,24.6 µM
same,GI50,OVCAR-3 ovarian,7.9 µM
same,TGI,OVCAR-3 ovarian,> 100 µM
same,GI50,OVCAR-8 ovarian,1.98 µM
same,TGI,OVCAR-8 ovarian,4.61 µM
same,GI50,IGROV1 ovarian,44.8 µM
same,TGI,IGROV1 ovarian,> 100 µM
same,GI50,A498 renal,19.4 µM
same,TGI,A498 renal,73.7 µM
same,GI50,NCI-H522 lung,4.68 µM
same,TGI,NCI-H522 lung,36.9 µM
same,GI50,RXF 393 renal,44.2 µM
same,TGI,RXF 393 renal,> 100 µM
same,GI50,SNB-75 CNS,23.1 µM
same,TGI,SNB-75 CNS,> 100 µM
same,GI50,OVCAR-4 ovarian,> 100 µM
same,TGI,OVCAR-4 ovarian,> 100 µM
same,GI50,BT-549 breast,12 µM
same,TGI,BT-549 breast,46.1 µM
same,GI50,MDA-MB-468 breast,26.5 µM
same,TGI,MDA-MB-468 breast,82.8 µM
same,GI50,NCI-H226 lung,95.9 µM
same,TGI,NCI-H226 lung,> 100 µM
same,GI50,KM12 colon,26.4 µM
same,TGI,KM12 colon,> 100 µM
same,GI50,A549 NSCLC,29.8 µM
same,TGI,A549 NSCLC,> 100 µM
same,GI50,MDA-MB-231 breast,6.96 µM
same,TGI,MDA-MB-231 breast,47.9 µM
same,GI50,EKVX NSCLC,> 100 µM
same,TGI,EKVX NSCLC,> 100 µM
same,GI50,HOP-92 NSCLC,7.81 µM
same,TGI,HOP-92 NSCLC,56.8 µM
same,GI50,786-0 renal,17.8 µM
same,TGI,786-0 renal,56 µM
same,GI50,U251 glioblastoma,36.7 µM
same,TGI,U251 glioblastoma,> 100 µM
same,GI50,NCI-H322M lung,> 100 µM
same,TGI,NCI-H322M lung,> 100 µM
same,GI50,HCC-2998 colon,2.11 µM
same,TGI,HCC-2998 colon,8.44 µM
same,GI50,OVCAR-5 ovarian,34.2 µM
same,TGI,OVCAR-5 ovarian,> 100 µM
same,GI50,NCI/ADR-RES ovarian,2.34 µM
same,TGI,NCI/ADR-RES ovarian,6.41 µM
same,GI50,HL-60(TB) leukemia,2.12 µM
same,TGI,HL-60(TB) leukemia,3.75 µM
same,GI50,SF-295 CNS,76.2 µM
same,TGI,SF-295 CNS,> 100 µM
same,GI50,SF-268 CNS,19.8 µM
same,TGI,SF-268 CNS,54.7 µM
same,GI50,ACHN renal,21.7 µM
same,TGI,ACHN renal,48.5 µM
same,GI50,TK-10 renal,> 100 µM
same,TGI,TK-10 renal,> 100 µM
same,GI50,NCI-H460 NSCLC,16.5 µM
same,TGI,NCI-H460 NSCLC,35.8 µM
same,GI50,HT29 colon,81.4 µM
same,TGI,HT29 colon,> 100 µM
same,GI50,T-47D breast,34.9 µM
same,TGI,T-47D breast,> 100 µM
same,GI50,COLO 205 colon,11 µM
same,TGI,COLO 205 colon,37.3 µM
same,GI50,CCRF-CEM leukemia,0.316 µM
same,TGI,CCRF-CEM leukemia,1.23 µM
same,GI50,SR leukemia,> 100 µM
same,TGI,SR leukemia,> 100 µM
same,GI50,SK-OV-3 ovarian,10.1 µM
same,TGI,SK-OV-3 ovarian,44.1 µM
same,GI50,HCT-15 colon,32.2 µM
same,TGI,HCT-15 colon,> 100 µM
same,GI50,CAKI-1 renal,17.4 µM
same,TGI,CAKI-1 renal,50.3 µM
same,GI50,UACC-62 melanoma,28.8 µM
same,TGI,UACC-62 melanoma,96.8 µM
same,GI50,M14 melanoma,2.6 µM
same,TGI,M14 melanoma,8.62 µM
same,GI50,SK-MEL-28 melanoma,3.11 µM
same,TGI,SK-MEL-28 melanoma,15.2 µM
same,GI50,SNB-19 CNS,7.28 µM
same,TGI,SNB-19 CNS,42.8 µM
same,GI50,SK-MEL-5 melanoma,14.1 µM
same,TGI,SK-MEL-5 melanoma,43.4 µM
same,GI50,MOLT-4 leukemia,1.15 µM
same,TGI,MOLT-4 leukemia,2.37 µM
same,GI50,HS 578T breast,30.6 µM
same,TGI,HS 578T breast,> 100 µM
same,GI50,MDA-MB-435 melanoma,12.4 µM
same,TGI,MDA-MB-435 melanoma,> 100 µM
same,GI50,NCI-H23 lung,3.55 µM
same,TGI,NCI-H23 lung,15.7 µM
same,GI50,RPMI-8226 leukemia,45.1 µM
same,TGI,RPMI-8226 leukemia,> 100 µM
same,GI50,PC-3 prostate,10.8 µM
same,TGI,PC-3 prostate,> 100 µM
same,GI50,SW-620 colon,49.8 µM
same,TGI,SW-620 colon,> 100 µM
